Reference: patent US10285988B2, “Compounds for treatment of fibrosis diseases” (CUREGENIX, INC., priority 2013, dated 2019)

Tested on: WNT pathway
Assay: WNT pathway reporter gene assay (NIH3T3 TCF-Luc cells co-cultured with 293 WNT3a cells)
Format: cell-based
Conditions: Mus musculus, co-culture 16 hours, luciferase luminescence reduced by 50%
Procedure: Materials and Methods: NIH3T3 mouse fibroblast cells (American Type Culture Collection, Manassas, Va.) were transfected with a plasmid containing a luciferase gene driven by 5 copies of TCF elements. Stale cells selected with 1 μg/mL of Zeocin (Gibco/Invitrogen, Carlsbad, Calif.) are cultured in Dulbecco's modified Eagle's medium (Invitrogen, Carlsbad, Calif.) supplemented with 10% FBS (Invitrogen), 50 unit/mL penicillin and 50 μg/mL of streptomycin (Invitrogen) at 37° C. with 5% CO2 in air atmosphere.
After 16 hours, the firefly luciferase activities are measured with the Steady-Glo™ Luciferase Assay System (Promega). The cells were treated with different concentrations of compounds of this invention during the co-culture. […] To normalize for cell quantity and viability, CellTiter Glo assay is next performed in a duplicate plate.

Row | SMILES | IC50 [nM]
1 | Cc1cc(-c2ccc(CNc3nccc4cc(-c5ccnc(C)c5)ncc34)cc2)ccn1 [Compound 1, N-(4-(2-methylpyridin-4-yl)benzyl)-6-(2-methylpyridin-4-yl)-2,7-naphthyridin-1-amine] | < 3
2 | Cc1cc(-c2cc3ccnc(NCc4ccc(-c5ccnc(C)c5)c(C)c4)c3cn2)ccn1 [Compound 2, N-(3-methyl-4-(2-methylpyridin-4-yl)benzyl)-6-(2-methylpyridin-4-yl)-2,7-naphthyridin-1-amine] | < 3
3 | Cc1cc(-c2cc3ccnc(NCc4ccc(-c5ccnc(F)c5)c(F)c4)c3cn2)ccn1 [Compound 28] | < 3
4 | Cc1cc(-c2ccc(CNc3nccc4cc(-c5cnccn5)ncc34)cc2)ccn1 [Compound 35] | < 3
5 | Cc1cc(-c2ncc(CNc3nccc4cc(-c5cnccn5)ccc34)cc2C)ccn1 [Compound 70] | < 3
